Measured values: the supplement of paper PMC10307832

Assays:
Experiment in all cases: relative viability (nuclei count vs DMSO), 5 days (fraction); higher = more cells survive
[1] = test system: NCI-H727
In short: (§1)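 Each reported value is a median over duplicate plates. It expresses relative viability: treated-well nuclei count divided by vehicle-well nuclei count. Lung cancer cell lines in 1536-well plates were dosed by pin tool a day after seeding, alone with one drug or with a fixed anchor-drug dose plus five library-drug doses (not always all listed) in √10 steps, and nuclei were counted after 5 days.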

[2] = test system: BEN
In short: as §1

[3] = test system: NCI-H1944
In short: as §1

[4] = test system: ABC-1
In short: as §1

[5] = test system: NCI-H1651
In short: as §1

[6] = test system: NCI-H460
In short: as §1

[7] = test system: NCI-H2023
In short: as §1

[8] = test system: NCI-H520
In short: as §1

[9] = test system: 201T
In short: as §1

[10] = test system: NCI-H661
In short: as §1

[11] = test system: NCI-H441
In short: as §1

[12] = test system: LCLC-97TM1
In short: as §1

[13] = test system: NCI-H2087
In short: as §1

[14] = test system: A-427
In short: as §1

[15] = test system: LC-2-ad
In short: as §1

[16] = test system: NCI-H1915
In short: as §1

[17] = test system: NCI-H596
In short: as §1

[18] = test system: NCI-H650
In short: as §1

[19] = test system: PC-3 [JPC-3]
In short: as §1

[20] = test system: CAL-12T
In short: as §1

[21] = test system: NCI-H1650
In short: as §1

[22] = test system: H3255
In short: as §1

Work on `O=C(O)c1ccc(-c2c[nH]c3ncc(-c4ccccc4)cc23)cc1C1CCCC1` + O=C(CCCCCCC(=O)Nc1ccccc1)NO [Vorinostat] (partner 1 µM) yielded a relative viability ([1]; first compound 0.04 µM) of 0.991, a relative viability ([1]; first compound 0.1265 µM) of 1.19 and a relative viability ([1]; first compound 0.4 µM) of 1.31. For the same compound, the relative viability ([1]; first compound 1.265 µM) was 1.18, the relative viability ([2]; first compound 0.04 µM) was 0.507 and the relative viability ([2]; first compound 0.1265 µM) was 0.614. For the same compound, the relative viability ([2]; first compound 0.4 µM) was 0.475, the relative viability ([2]; first compound 1.265 µM) was 0.505 and the relative viability ([3]; first compound 0.04 µM) was 0.53. It also gave a relative viability ([3]; first compound 0.1265 µM) of 0.573, a relative viability ([3]; first compound 0.4 µM) of 0.582 and a relative viability ([3]; first compound 1.265 µM) of 0.465. For the same compound, the relative viability ([4]; first compound 0.04 µM) was 1.12, the relative viability ([4]; first compound 0.1265 µM) was 1.36 and the relative viability ([4]; first compound 0.4 µM) was 1.31. It also gave a relative viability ([4]; first compound 1.265 µM) of 0.985, a relative viability ([5]; first compound 0.04 µM) of 0.349 and a relative viability ([5]; first compound 0.1265 µM) of 0.596. The relative viability ([5]; first compound 0.4 µM) was 0.62, the relative viability ([5]; first compound 1.265 µM) was 0.462 and the relative viability ([6]; first compound 0.04 µM) was 0.642. For the same compound, the relative viability ([6]; first compound 0.1265 µM) was 0.842, the relative viability ([6]; first compound 0.4 µM) was 0.831 and the relative viability ([6]; first compound 1.265 µM) was 0.603. For the same compound, the relative viability ([7]; first compound 0.04 µM) was 0.825, the relative viability ([7]; first compound 0.1265 µM) was 0.967 and the relative viability ([7]; first compound 0.4 µM) was 0.523. It also gave a relative viability ([7]; first compound 1.265 µM) of 0.507, a relative viability ([8]; first compound 0.04 µM) of 0.643 and a relative viability ([8]; first compound 0.1265 µM) of 0.816. For the same compound, the relative viability ([8]; first compound 0.4 µM) was 0.71, the relative viability ([8]; first compound 1.265 µM) was 0.484 and the relative viability ([9]; first compound 0.04 µM) was 0.949. The relative viability ([9]; first compound 0.1265 µM) was 0.963, the relative viability ([9]; first compound 0.4 µM) was 0.952 and the relative viability ([9]; first compound 1.265 µM) was 0.989. The relative viability ([10]; first compound 0.04 µM) was 0.766, the relative viability ([10]; first compound 0.1265 µM) was 0.763 and the relative viability ([10]; first compound 0.4 µM) was 0.787. It also gave a relative viability ([10]; first compound 1.265 µM) of 0.787, a relative viability ([11]; first compound 0.04 µM) of 0.866 and a relative viability ([11]; first compound 0.1265 µM) of 0.837. The relative viability ([11]; first compound 0.4 µM) was 0.615, the relative viability ([11]; first compound 1.265 µM) was 0.445 and the relative viability ([12]; first compound 0.04 µM) was 0.876. For the same compound, the relative viability ([12]; first compound 0.1265 µM) was 0.94, the relative viability ([12]; first compound 0.4 µM) was 0.747 and the relative viability ([12]; first compound 1.265 µM) was 0.525. For the same compound, the relative viability ([13]; first compound 0.04 µM) was 0.916, the relative viability ([13]; first compound 0.1265 µM) was 0.924 and the relative viability ([13]; first compound 0.4 µM) was 0.611. It also gave a relative viability ([13]; first compound 1.265 µM) of 0.465, a relative viability ([14]; first compound 0.04 µM) of 0.822 and a relative viability ([14]; first compound 0.1265 µM) of 0.84. The relative viability ([14]; first compound 0.4 µM) was 0.793, the relative viability ([14]; first compound 1.265 µM) was 0.742 and the relative viability ([15]; first compound 0.04 µM) was 0.692. The relative viability ([15]; first compound 0.1265 µM) was 0.696, the relative viability ([15]; first compound 0.4 µM) was 0.668 and the relative viability ([15]; first compound 1.265 µM) was 0.454. It also gave a relative viability ([16]; first compound 0.04 µM) of 0.532, a relative viability ([16]; first compound 0.1265 µM) of 0.525 and a relative viability ([16]; first compound 0.4 µM) of 0.501. It also gave a relative viability ([16]; first compound 1.265 µM) of 0.479, a relative viability ([17]; first compound 0.04 µM) of 0.499 and a relative viability ([17]; first compound 0.1265 µM) of 0.657. For the same compound, the relative viability ([17]; first compound 0.4 µM) was 0.583, the relative viability ([17]; first compound 1.265 µM) was 0.571 and the relative viability ([18]; first compound 0.04 µM) was 0.48. It also gave a relative viability ([18]; first compound 0.1265 µM) of 0.394, a relative viability ([18]; first compound 0.4 µM) of 0.413 and a relative viability ([18]; first compound 1.265 µM) of 0.22. For the same compound, the relative viability ([19]; first compound 0.04 µM) was 0.803, the relative viability ([19]; first compound 0.1265 µM) was 0.836 and the relative viability ([19]; first compound 0.4 µM) was 0.787. The relative viability ([19]; first compound 1.265 µM) was 0.667, the relative viability ([20]; first compound 0.04 µM) was 0.721 and the relative viability ([20]; first compound 0.1265 µM) was 0.91. For the same compound, the relative viability ([20]; first compound 0.4 µM) was 0.73, the relative viability ([20]; first compound 1.265 µM) was 0.668 and the relative viability ([21]; first compound 0.04 µM) was 0.418. For the same compound, the relative viability ([21]; first compound 0.1265 µM) was 0.513, the relative viability ([21]; first compound 0.4 µM) was 0.538 and the relative viability ([21]; first compound 1.265 µM) was 0.476. For the same compound, the relative viability ([22]; first compound 0.04 µM) was 0.872, the relative viability ([22]; first compound 0.1265 µM) was 0.795 and the relative viability ([22]; first compound 0.4 µM) was 0.83. The relative viability ([22]; first compound 1.265 µM) was 0.791.
